Results reported in ChEMBL document CHEMBL1201862, “PubChem BioAssay data set” (2004).
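Dose response: 5 concentrations. Exposure: 48 h. Format: 96-well plates. Endpoint: linear interpolation; highest concentration if not reached. Abbreviation: GI50, concentration required for 50% inhibition of growth.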 Activity calls are given as the source filed them. No stated cut-off is given here; in the data, active = GI50 up to about 1.1 µM and inactive = higher.

How the values were obtained:
Experiment in all cases: growth of human tumour cells (NCI), 48 h
CAKI-1 = system: CAKI-1
RXF 393 = system: RXF 393
KM12 = system: KM12
UACC-62 = system: UACC-62
SR = system: SR
SF-268 = system: SF-268
HOP-62 = system: HOP-62
NCI-H23 = system: NCI-H23
LOX IMVI = system: LOX IMVI
HOP-92 = system: HOP-92
OVCAR-4 = system: OVCAR-4
NCI-H460 = system: NCI-H460
ACHN = system: ACHN
HT-29 = system: HT-29
UO-31 = system: UO-31
MOLT-4 = system: MOLT-4
CCRF-CEM = system: CCRF-CEM
Hs-578T = system: Hs-578T
PC-3 = system: PC-3
TK-10 = system: TK-10

SMILES | GI50 (CAKI-1) | GI50 (RXF 393) | GI50 (KM12) | GI50 (UACC-62) | GI50 (SR) | GI50 (SF-268) | GI50 (HOP-62) | GI50 (NCI-H23) | GI50 (LOX IMVI) | GI50 (HOP-92) | GI50 (OVCAR-4) | GI50 (NCI-H460) | GI50 (ACHN) | GI50 (HT-29) | GI50 (UO-31) | GI50 (MOLT-4) | GI50 (CCRF-CEM) | GI50 (Hs-578T) | GI50 (PC-3) | GI50 (TK-10)
Cn1c(=O)c2c(nc3n(Cc4ccccc4)c(=O)c(NCCCBr)cn23)n(C)c1=O | > 100 µM (inactive) | 71 µM (inactive) | > 100 µM (inactive) | > 100 µM (inactive) | 23 µM (inactive) | 41.2 µM (inactive) | 26.5 µM (inactive) | > 100 µM (inactive) | 99.1 µM (inactive) | 18.1 µM (inactive) | > 100 µM (inactive) | > 100 µM (inactive) | 32.6 µM (inactive) | > 100 µM (inactive) | > 100 µM (inactive) | 19.2 µM (inactive) | > 100 µM (inactive) | 27.3 µM (inactive) | > 100 µM (inactive) | 38.5 µM (inactive)
CCN(CC)CCCNc1c2cc(OC)ccc2nc2cccc([N+](=O)[O-])c12 | 0.21 µM (active) | 0.0557 µM (active) | 0.11 µM (active) | 0.166 µM (active) | 0.00612 µM (active) | 0.0841 µM (active) | 0.156 µM (active) | 0.0746 µM (active) | 0.024 µM (active) | 0.0484 µM (active) | 0.0261 µM (active) | 0.0184 µM (active) | 0.0407 µM (active) | 0.0456 µM (active) | 0.0402 µM (active) | 0.0274 µM (active) | 0.128 µM (active) | 0.138 µM (active) | 0.0543 µM (active) | 0.195 µM (active)
COC(=O)c1cc2c(cc1Cl)Sc1nnc(Nc3ccccc3)n1S2(=O)=O | 2.42 µM (inactive) | 2.21 µM (inactive) | 2.71 µM (inactive) | 3.99 µM (inactive) | 2.74 µM (inactive) | 2.26 µM (inactive) | 2.15 µM (inactive) | 2.34 µM (inactive) | 7.98 µM (inactive) | 1.42 µM (inactive) | 3.37 µM (inactive) | 10 µM (inactive) | 1.8 µM (inactive) | 2.4 µM (inactive) | 2.48 µM (inactive) | 2.47 µM (inactive) | 2.3 µM (inactive) | 3.1 µM (inactive) | 3.08 µM (inactive) | 2.69 µM (inactive)
